The data set in a line: Quantitation of peroxide gases of decomposition (U-tube manometer). The format is physicochemical. The protocol: The volume of peroxides' gases of decomposition was measured using a water filled U-tube fitted with a minimal volume tubing connected to a non-coring syringe needle. The manometer made of pyrex glass was filled partially with deionized water colored with FD&C blue dye #1 and 1,000 ppm of non-ionic surfactant. The dye allows for increased visibility of the water columns and the surfactant lowers the surface tension allowing for unbroken water columns. The manometer was also fitted with a metric ruler to allow the convenient determination of the column heights difference. Given that 1 atmosphere of pressure corresponds with […] of water column height and the limit of resolution on the column and ruler combination is about 1 mm, the signal/noise ratio approximates […].
Procedure. Four head space vials were double rinsed with the sample solution before adding 5 mL of sample solution (via Repeat Pipettor) and sealing the vials with a silicone backed PTFE septum with aluminum cap. Immediately after sealing the vials the temperature and barometric pressure were recorded. A set of water blank replicates of the same volume were also included. The sealed vials were stored for 24-48 hours at ambient temperatures inside a dark cabinet to allow for optimal gas pressure generation.
Calculations. By calibration of the U-tube water column displacement using a precision gas syringe, the water column height to gas volume ratio was calculated. Using the assumption of peroxide decay to molecular oxygen (ignoring CO2 or CO gases etc.), these values were converted to gas volumes and the loss of available oxygen in the sample was thereby calculated using the formulae below: 2 moles of RCO3H→2 moles of RCO2H+1 mole of O2(22.4 L of O2 at standard temperature and pressure) And 2 moles of H2O2→2 moles of H2O+1 mole of O2(22.4 L of O2 at standard temperature and pressure)

For Hydrogen peroxide [F], for the setting “5 mL sample, sealed vial, 24-48 hours, ambient temperature”, the “Net O2 Lost” value was found to be 0.017 g. Where the note is “5 mL sample, sealed vial, 24-48 hours, ambient temperature, dark”, the “Net Gas Gen.” value was 11.9 mL. Moreover, the “Rel. Loss O2” value (24-48 hours, ambient temperature) is given as 0.02% w/w, %. Further, where the note is “initial”, the “Initial H2O2” value is recorded as 50.00 w/w, % and the “Initial POAA” value was 0.00 w/w, %. The “Initial O2” value (initial available oxygen) is given as 23.53 w/w, %.

These data come from US11939241B2, “Stable percarboxylic acid compositions and uses thereof” (Ecolab USA Inc., priority 2012, dated 2024).
